Data: BigSolDB 2.1

CC(=O)Nc1ccc(OC(=O)c2ccccc2OC(C)=O)cc1
solubility (mole fraction)
Settings	278.15 K	283.15 K	288.15 K	293.15 K	298.15 K	303.15 K	308.15 K	313.15 K	318.15 K
in acetone	0.00215	0.00268	0.00353	0.00414	0.0052	0.00593	0.00792	0.0098	0.0123
in acetonitrile	0.00129	0.00153	0.00192	0.00235	0.00275	0.00378	0.00452	0.00575	0.00674
in ethanol	0.000242	0.000364	0.000497	0.000601	0.000717	0.000987	0.00125	0.00155	0.002
in ethyl acetate	0.000904	0.00109	0.00115	0.00147	0.00179	0.00216	0.00268	0.00325	0.00391
in ethyl formate	0.000965	0.00111	0.00138	0.00165	0.00193	0.00227	0.00299	0.00394	0.00449
in isobutanol	0.000204	0.000272	0.000344	0.000485	0.000587	0.000739	0.00107	0.00131	0.00161
in isopropanol	0.000153	0.000216	0.000261	0.000314	0.000481	0.000593	0.000833	0.00106	0.00137
in isopropyl acetate	0.000329	0.000423	0.00056	0.000886	0.00106	0.00145	0.00189	0.00241	0.00314
in methanol	0.000427	0.000575	0.000718	0.000908	0.001	0.00129	0.00171	0.0021	0.00271
in methyl acetate	0.000971	0.00121	0.00155	0.00183	0.0023	0.00267	0.0034	0.00406	0.00481
in n-butanol	0.000302	0.000407	0.000517	0.000643	0.000764	0.000939	0.00127	0.00143	0.00174
in n-propanol	0.000181	0.000268	0.000361	0.000561	0.000723	0.000994	0.0013	0.00166	0.00222
